US20240373849A1, “INSECT NEUROPEPTIDE ANALOGUES” (THE UNIVERSITY COURT OF THE UNIVERSITY OF GLASGOW, priority 2020, published 2024)
Square brackets hold non-standard residues; d marks the D form. NMeL = CN[C@@H](CC(C)C)C(=O)O; NMeV = CN[C@H](C(=O)O)C(C)C; NMeA = CN[C@@H](C)C(=O)O; Aib = CC(C)(N)C(=O)O

Legend:
[1] = system: M. persicae; test: Feeding of aphids with peptides in artificial diet (Example 1); format: in vivo, Myzus persicae
Protocol: A standard artificial diet for M. persicae was produced as described in Van Emden (2009) and provided the basal diet to which peptides were added for screening purposes. Peptides were diluted individually in the artificial diet to a pre-determined concentration.
Feeding apparatus were constructed using a set-up developed by Sadeghi et al (2009). For this, a piece of Parafilm was stretched over a Plexiglas ring (h=4 cm, Ø=3 cm) and 100 μl of the artificial diet containing the desired neuropeptide analogue was pipette onto the Parafilm membrane. A second piece of Parafilm, stretched to 4 times the original thickness, was stretched over the original layer, sandwiching the artificial diet between two layers of Parafilm. A strip of Parafilm was wrapped around the circumference of the Plexiglas ring, sealing in the diet. A plastic ring (h=1.2 cm, Ø=3.4 cm) was subsequently placed over the Parafilm layer, creating a walled chamber in which to house test aphids in contact with the Parafilm layer containing the artificial diet. Finally, a small Petri dish (h=1 cm, Ø=3.6 cm), modified for ventilation with net cloth, was placed on top of each feeding apparatus to prevent aphid escape.
To obtain aphids for use in experiments, reproducing anholocyclic adults were placed on individual excised leaves of Chinese cabbage at densities of 5 adults per leaf and allowed to reproduce for 24 h. The stem of each excised leaf was held within a 0.5 mL Eppendorf tube containing water via a punctured hole in the Eppendorf lid, and placed individually within a microcage (L=4 cm, Ø=9.5 cm). Following 24h, adults were removed and resultant first instar nymphs (<1 day old and synchronised in age to within 24h) retained. Nymphs were allowed to develop on the Chinese cabbage for 5 days. On day 5, (3rd instar) nymphs were transferred onto the artificial diet containing a neuropeptide analogue at densities of 1 per feeding chamber and monitored daily until death. Aphids were transferred to fresh artificial diet (containing neuropeptide analogue or water control) every 5 days.
The water control group was used to determine baseline lethality. Results for neuropeptide analogues were calculated as % lethality in the remaining population after adjustment for the baseline.

[2] = system: Drosophila suzukii larvae; test: Drosophila suzukii larval feeding (Example 8; peptide screening); format: in vivo; details: for Feeding D. suzukii, % lethality in population after adjustment for baseline: 10^−5 M, 48 hr exposure
Protocol: (§1) First to Fourth generations of peptides were produced with varying structures and tested for CAPA receptor agonist activity, and screened for lethality in vivo against D. suzukii and M. persicae as per methods in example 2 and example 8. The top performing peptides were selected and gave rise to the list of CAPA1 and CAPA2 peptides provided above in Table 1 which were then further tested in the following applied examples.
Peptides were tested at concentrations ranging from [10^−4 M] to [10^−7 M] in a final volume of 200 μl of 0.8% agarose containing 0.09% m-Cresol purple pH marker dye (Sigma) and 5% sucrose (Sigma).
Agarose was melted in dH2O, before addition of sucrose and dye. The agarose/dye solution was then allowed to cool to 60° C. 96 well plates (flat-bottomed 3596 TC-plates; Corning) containing 20 μl volumes of neuropeptide per well were prepared, and 180 μl agarose/dye solution dispensed into each well via a Distriman repetitive micro-pipettor (Gilson). Controls contained 20 μl dH2O as a ‘sham’ treatment with 180 μl of the 0.8% agarose/dye solution. Plates were agitated at 800 rpm, to ensure mixing, at 60° C. (Eppendorf Thermomixer C). Plates were then allowed to cool, and agarose/dye solution solidify, prior to use.
Each peptide was assayed with a minimum of 7 to maximum 9 late L2/early L3 Spotted wing Drosophila, Drosophila suzukii, (feeding) larvae per well, minimum n=8 wells per peptide concentration and a minimum n=12 control wells per plate. The selected larvae were first washed 2× in ice cold Drosophila Schneider's liquid medium (ThermoFisher) before insertion into wells to remove extraneous food. After complete insertion of all larvae the plates were covered with breathable sealing membrane for multi-well plates (Sigma).
Larvae were assayed for lethality after 48 hr exposure at 21° C. and findings recorded. During examination the assay plate was kept on ice, to reduce larval locomotor activity (wandering), and larvae in each well were examined using a binocular stereomicroscope (Zeiss).
The water control group was used to determine baseline lethality. Results for neuropeptide analogues were calculated as % lethality in the remaining population after adjustment for the baseline. Results are shown in Tables 7 and 8 below, and in FIG. 1.

[3] = system: M. persicae; test: Feeding of aphids with peptides in artificial diet (Example 2; peptide screening, honeydew); format: in vivo, Myzus persicae
Description: as §1
The aphid feeding protocol was devised according to Sadeghi et al (2009) as explained in example 1. Feeding discs were designed and manufactured as above. A standard sucrose-based artificial diet for M. persicae (30 aphids per chamber, 3 chambers per experiment unless otherwise stated) was produced as described in example 1 (Sadeghi et al, J. Insect Science, 2009) and provided the basal diet to which peptides were added for screening purposes. Peptides were diluted individually in the artificial diet to 10^−5 M. Lethality was scored after up to 120 hours (IRAC guidelines for aphid testing).
Membrane discs were also included to collect ‘honeydew’ secreted by feeding aphids and stained with ninhydrin to observe feeding patterns.
Comparison of purple stain in controls to treated aphids, show there is very little colour on many membranes where peptides were added.
Capa peptides cause mortality in M. persicae via feeding: At 120 hours, AH383 and AH387 peptides induce ˜60% mean (and median) lethality. Although mean lethality is lower with AH270/PEGAH270 (40%), 100% lethality is observed in one sample of 30 insects (AH270); and 90% in at least one sample of each of AH383, AH387 and PEGAH270 (FIG. 3). Note that PEGAH270 is a pegylated form of peptide AH270.

[4] = system: Myzus persicae aphids; test: Topical application by spraying, Potter Spray Tower (Example 3); format: in vivo; details: 48 hours post spray
Protocol: Aphids were exposed to test peptides in the absence of additional external stress conditions.
Brassica rapa (Chinese cabbage; Wong Bok) were infested with 30 adult Myzus persicae aphids per plant. Aphids were left at least 2 hours to settle and begin feeding from the host plant.
Potter Spray Tower (Burkard Manufacturing) was ‘primed’ by spraying 1000 μl of liquid coating the inside of the tower. Vehicle spray only (Croda ATPlus UEP 100 LQ-(CQ) 0.1% v/v) was used as a control.
Spray volumes for all solutions were 3000 μl. […] After spraying was completed the plant was allowed to rest on the spray platform for 30 seconds to allow settling of the sprayed chemical.
Post peptide application, each condition was placed into its own individual Bugdorm (Watkins and Doncaster, 44545), to prevent repulsed or displaced aphids moving from one condition to another. Numbers of alive and dead aphids on the plant were counted 48 hours post spray, and the presence of any fresh nymphs noted. Plants were watered prior to spraying but not afterwards to eliminate the possibility of drowning any aphids present or washing off the sprayed liquid.
The vehicle control group was used to determine baseline lethality. Results for neuropeptide analogues were calculated as % lethality in the remaining population after adjustment for the baseline.

[5] = system: D. suzukii larvae; test: Drosophila suzukii larval feeding (Example 9; dose response); format: in vivo; details: for % Lethality ± SEM: Table 6, 10^−5 M, 48 hr and/or 72 h exposure (FIG. 7: AH270/PEGAH270 120 h)
Protocol: Dose response experiments were carried out for AH382, AH383, AH188, data shown for AH382 (a), AH383 (b), AH188 (c, 48 hours). Data are mean % lethality ±SEM for concentrations between 10^−4 M and 10^−7 M (a) AH382, (b) AH383 72 hours treatment; and between 10^−5 M and 10^−9 M (AH188, 3c), 48 hours treatment. The LD50 for AH382, AH383 and AH188 is 10^−6 M.
Further larval feeding assays with D. suzukii larvae were conducted as explained above in example 7. A total of 88 peptides were tested against D. suzukii larvae in 96 well plates at 10^−5 M in a final volume of 200 μl of 0.8% agarose containing 0.09% m-Cresol purple pH marker dye (Sigma) and 5% sucrose (Sigma). Controls contained dH2O (18% lethality) or native Capa-2 peptide (38% lethality) as a ‘sham’ treatment. Each peptide was assayed with a minimum of 7 to maximum 9 late L2/early L3 larvae per well, minimum n=8 wells per peptide concentration (minimum 56 larvae) and a minimum n=12 control wells (minimum 84 larvae) per plate. Larvae were assayed for lethality after 48 hr and/or 72 h exposure at 21° C. using a binocular stereomicroscope and findings recorded. Candidate peptides were also tested between 10^-4 and 10^-7 M (dose response curve).
Candidate peptides for D. suzukii with 70%-90% lethality are indicated below, in Table 6.

[6] = target: T1, Drosophila melanogaster capa GPCR, capaR (Drosophila melanogaster, UniProt Q8ITC7 1-477); test: cell-based or functional assay
T1 sequence (looked up): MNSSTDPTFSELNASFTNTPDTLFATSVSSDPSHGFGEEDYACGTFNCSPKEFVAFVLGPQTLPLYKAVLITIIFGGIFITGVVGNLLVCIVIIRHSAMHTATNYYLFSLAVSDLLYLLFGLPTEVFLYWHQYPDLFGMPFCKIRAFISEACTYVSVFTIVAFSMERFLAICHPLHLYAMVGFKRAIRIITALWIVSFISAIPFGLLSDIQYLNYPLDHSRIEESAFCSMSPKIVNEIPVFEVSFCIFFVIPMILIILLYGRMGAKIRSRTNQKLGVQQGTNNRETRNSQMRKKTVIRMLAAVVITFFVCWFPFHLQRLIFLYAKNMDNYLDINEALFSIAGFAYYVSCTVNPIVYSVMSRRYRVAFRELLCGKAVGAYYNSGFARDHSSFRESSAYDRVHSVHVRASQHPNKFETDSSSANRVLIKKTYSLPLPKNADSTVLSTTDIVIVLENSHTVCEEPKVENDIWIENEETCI

Molecule: H-(Me)L-YAFARV-NH2 (H-[NMeL]YAFARV-NH2; SMILES CN[C@@H](CC(C)C)C(=O)N[C@@H](Cc1ccc(O)cc1)C(=O)N[C@@H](C)C(=O)N[C@@H](Cc1ccccc1)C(=O)N[C@@H](C)C(=O)N[C@@H](CCCNC(=N)N)C(=O)N[C@H](C(N)=O)C(C)C) [AH383]
- Feeding Aphid, % lethality in population after adjustment for baseline ([1]; 10^−5 M): 10%
- Feeding D. suzukii, % lethality in population after adjustment for baseline [2]: 56%
- mean lethality ([3]; M. persicae feeding, 10^−5 M, 120 hours): ~60%
- lethality observed in one sample of 30 insects ([3]; M. persicae feeding, 10^−5 M, 120 hours, single sample): 90%
- Spray Aphid, % lethality in population after adjustment for baseline ([4]; 10^−4 M): 42%
- Spray Aphid, % lethality in population after adjustment for baseline ([4]; 10^−5 M): 13%
- LD50 ([5]; 72 hours treatment): 10^−6 M
- % Lethality ± SEM [5]: 80 ± 3%

Molecule: H-LYAFARV-NH2 [AH188]
- Feeding Aphid, % lethality in population after adjustment for baseline ([1]; 10^−4 M): 23%
- Feeding Aphid, % lethality in population after adjustment for baseline ([1]; 10^−5 M): 23%
- Feeding Aphid, % lethality in population after adjustment for baseline ([1]; 10^−5 M, @72 h): 1 (33%@72 h)
- Feeding Aphid, % lethality in population after adjustment for baseline ([1]; 10^−6 M): 22%
- Feeding Aphid, % lethality in population after adjustment for baseline ([1]; 10^−7 M): 17%
- Feeding D. suzukii, % lethality in population after adjustment for baseline [2]: 71%
- D. suzukii (Mean% Lethality ± SD) ([2]; Peptide screening, Table 5, blank control 20.33): 70.50%
- D. suzukii (Sig Diff Grp) ([2]; Peptide screening, Table 5, difference in survival): ABC
- M. persicae (% Lethality) ([3]; Peptide screening, Table 5): 22%
- Spray Aphid, % lethality in population after adjustment for baseline ([4]; 10^−4 M): 2%
- LD50 ([5]; 48 hours treatment): 10^−6 M
- % Lethality ± SEM [5]: 71 ± 6%

B1: AH380 (H-LYAFAR-(Me)V-NH2) (peptide)
peptide: H-LYAFAR[NMeV]-NH2
SMILES: CC(C)C[C@H](N)C(=O)N[C@@H](Cc1ccc(O)cc1)C(=O)N[C@@H](C)C(=O)N[C@@H](Cc1ccccc1)C(=O)N[C@@H](C)C(=O)N[C@@H](CCCNC(=N)N)C(=O)N(C)[C@H](C(N)=O)C(C)C
- CapaR Ca^2+ Agonist response at 10^-7 M [6]: 14 % of native Capa1 activity

B2: AH382 (H-LY-(Me)A-FARV-NH2) (peptide)
peptide: H-LY[NMeA]FARV-NH2
SMILES: CC(C)C[C@H](N)C(=O)N[C@@H](Cc1ccc(O)cc1)C(=O)N(C)[C@@H](C)C(=O)N[C@@H](Cc1ccccc1)C(=O)N[C@@H](C)C(=O)N[C@@H](CCCNC(=N)N)C(=O)N[C@H](C(N)=O)C(C)C
- CapaR Ca^2+ Agonist response at 10^-7 M [6]: 36 % of native Capa1 activity

Molecule: H-LYAFARV-NH2 [AH188 (H-LYAFARV-NH2)]
- CapaR Ca^2+ Agonist response at 10^-7 M [6]: 64 % of native Capa1 activity

B3: AH387 (H-LY-Aib-FARV-NH2) (peptide)
peptide: H-LY[Aib]FARV-NH2
SMILES: CC(C)C[C@H](N)C(=O)N[C@@H](Cc1ccc(O)cc1)C(=O)NC(C)(C)C(=O)N[C@@H](Cc1ccccc1)C(=O)N[C@@H](C)C(=O)N[C@@H](CCCNC(=N)N)C(=O)N[C@H](C(N)=O)C(C)C
- CapaR Ca^2+ Agonist response at 10^-7 M [6]: 17 % of native Capa1 activity

B4: AH383 (H-(Me)L-YAFARV-NH2) (peptide)
peptide: H-[NMeL]YAFARV-NH2
SMILES: CN[C@@H](CC(C)C)C(=O)N[C@@H](Cc1ccc(O)cc1)C(=O)N[C@@H](C)C(=O)N[C@@H](Cc1ccccc1)C(=O)N[C@@H](C)C(=O)N[C@@H](CCCNC(=N)N)C(=O)N[C@H](C(N)=O)C(C)C
- CapaR Ca^2+ Agonist response at 10^-7 M [6]: 26 % of native Capa1 activity
